According to ChEMBL document CHEMBL1287644, “The novel benzopyran class of selective cyclooxygenase-2 inhibitors. Part III: the three microdose candidates” (Bioorg Med Chem Lett, 2010):

How the values were obtained:
[1] = target: Prostaglandin G/H synthase 1 (Homo sapiens, UniProt P23219); assay: Inhibition of human COX-1
[2] = species on record: Homo sapiens; assay: Selectivity ratio of IC50 for human COX1 to IC50 for human COX2
[3] = system: Rattus norvegicus; assay: Antiinflammatory activity in rat air pouch model assessed as inhibition of carrageenan-induced PGE2 production administered 1 hr after carrageenan challenge
[4] = system: Rattus norvegicus; assay: Antiinflammatory activity in rat air pouch model assessed as inhibition of carrageenan-induced PGE2 production administered 1 hr before carrageenan challenge; format: functional; conditions: for ED50: Rattus norvegicus
[5] = system: Rattus norvegicus; assay: Antiinflammatory activity in rat assessed as reduction of carrageenan-induced paw edema; format: functional
[6] = species on record: Rattus norvegicus; assay: Analgesic activity against carrageenan-induced thermal hyperalgesia in rat; format: functional
[7] = species on record: Rattus norvegicus; assay: Antiarthritic activity in rat assessed as reduction in adjuvant-induced arthritic pain; format: functional
[8] = Half life in rat; format: ADME, organism-based; conditions: in vivo
[9] = Half life in dog; format: ADME, organism-based, Canis lupus familiaris; conditions: in vivo
[10] = Half life in human at 10 ug, po; format: ADME, organism-based; conditions: in vivo
[11] = Half life in cynomolgus monkey; format: ADME, organism-based, Macaca fascicularis; conditions: in vivo

Chain of Prostaglandin G/H synthase 1 (P23219 whole entry): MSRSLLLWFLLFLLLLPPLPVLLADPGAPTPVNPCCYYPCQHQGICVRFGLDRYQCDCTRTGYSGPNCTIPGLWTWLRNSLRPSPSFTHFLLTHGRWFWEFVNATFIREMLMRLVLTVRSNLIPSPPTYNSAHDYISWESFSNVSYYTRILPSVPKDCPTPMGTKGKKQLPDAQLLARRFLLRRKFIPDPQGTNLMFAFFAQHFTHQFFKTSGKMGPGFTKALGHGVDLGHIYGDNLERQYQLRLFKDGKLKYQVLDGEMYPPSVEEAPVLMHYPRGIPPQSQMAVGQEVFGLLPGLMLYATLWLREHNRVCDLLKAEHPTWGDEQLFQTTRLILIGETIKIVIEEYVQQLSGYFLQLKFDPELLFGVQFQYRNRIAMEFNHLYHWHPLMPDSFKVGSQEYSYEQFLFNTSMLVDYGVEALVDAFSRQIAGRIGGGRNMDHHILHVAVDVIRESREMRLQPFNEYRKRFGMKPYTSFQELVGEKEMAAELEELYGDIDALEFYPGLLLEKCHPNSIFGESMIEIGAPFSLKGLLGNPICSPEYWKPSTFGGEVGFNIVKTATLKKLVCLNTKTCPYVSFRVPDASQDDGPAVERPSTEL

Row | IC50 [1] [µM] | Ratio IC50 [2] | Structure (SMILES) | also measured
1 | 0.47 |  | Cc1cc(Cl)cc2c1OC(C(F)(F)F)C(C(=O)O)=C2 (stereo not given) | 
2 | 500 | 685 | O=Cc1ccc2c(c1)C=C(C(=O)O)C(C(F)(F)F)O2 (stereo not given) | 
3 | 0.14 | 5.4 | C#Cc1cc(Cl)c2c(c1)C=C(C(=O)O)C(C(F)(F)F)O2 (stereo not given) | 
4 | 169 | 704 | Cc1cc(C)c2c(c1)C=C(C(=O)O)C(C(F)(F)F)O2 (stereo not given) | 
5 | 25.6 | 107 | COc1cc(Cl)c2c(c1)C=C(C(=O)O)C(C(F)(F)F)O2 (stereo not given) | 
6 |  |  | Cc1c(Cl)cc2c(c1C)O[C@H](C(F)(F)F)C(C(=O)O)=C2 | inhibition (INH) [3]: 60%
7 | 0.14 | 0.5 | CCc1cc(C)c2c(c1)C=C(C(=O)O)C(C(F)(F)F)O2 (stereo not given) | 
8 | 2.28 |  | Cc1cc2c(c(C)c1Cl)C=C(C(=O)O)[C@@H](C(F)(F)F)O2 | ED50 [4]: 0.41 mg/kg; ED50 [5]: 8 mg/kg; ED50 [6]: 7.6 mg/kg; ED50 [7]: 3.2 mg/kg; half-life [8]: 4.7 h; half-life [9]: 23 h; half-life [10]: 11 h; half-life [11]: 5.4 h
9 | 100 |  | Cc1cc(C)c2c(c1)C=C(C(=O)O)[C@@H](C(F)(F)F)O2 | inhibition (INH) [4]: 80%; ED50 [4]: 2 mg/kg; ED50 [5]: 8.6 mg/kg; ED50 [6]: 20.7 mg/kg; ED50 [7]: 10 mg/kg; half-life [8]: 8.7 h; half-life [9]: 19 h; half-life [10]: 57 h; half-life [11]: 28 h
10 | 0.32 | 0.5 | COc1cc(OC(F)(F)F)cc2c1OC(C(F)(F)F)C(C(=O)O)=C2 (stereo not given) | 
11 | 2.58 | 12 | Cc1cc(Cl)c(C)c2c1OC(C(F)(F)F)C(C(=O)O)=C2 (stereo not given) | 
12 | 100 |  | CCc1cc(OC(F)(F)F)cc2c1O[C@@H](C(F)(F)F)C(C(=O)O)=C2 | 
13 | 19.9 |  | CCc1cc(OC(F)(F)F)cc2c1O[C@H](C(F)(F)F)C(C(=O)O)=C2 | inhibition (INH) [4]: >72%; ED50 [4]: 1.87 mg/kg; ED50 [5]: 3.8 mg/kg; ED50 [6]: 5.6 mg/kg; ED50 [7]: 0.8 mg/kg; half-life [8]: 2 h; half-life [9]: 7.7 h; half-life [10]: 13 h; half-life [11]: 12 h
14 | 0.12 | 0.36 | CCc1ccc2c(c1)C=C(C(=O)O)C(C(F)(F)F)O2 (stereo not given) | inhibition (INH) [3]: 90%
15 |  |  | Cc1cc(OC(F)(F)F)cc2c1O[C@H](C(F)(F)F)C(C(=O)O)=C2 | inhibition (INH) [4]: >68%
16 | 7 | 163 | CCCc1cc(OC(F)(F)F)cc2c1OC(C(F)(F)F)C(C(=O)O)=C2 (stereo not given) | 
17 |  | 91 | O=C(O)C1=Cc2cc(Cl)ccc2OC1C(F)(F)F (stereo not given) | 
18 | 71.7 |  | CCCc1cc(OC(F)(F)F)cc2c1O[C@H](C(F)(F)F)C(C(=O)O)=C2 | inhibition (INH) [4]: >68%
19 | 94.2 | 1290 | C#Cc1ccc2c(c1)C=C(C(=O)O)C(C(F)(F)F)O2 (stereo not given) | inhibition (INH) [4]: 60%
20 | 17 | 773 | O=C(O)C1=Cc2cc(OC(F)(F)F)ccc2OC1C(F)(F)F (stereo not given) [OCAROCOXIB] | 
21 | 100 |  | CCCc1cc(OC(F)(F)F)cc2c1O[C@@H](C(F)(F)F)C(C(=O)O)=C2 | 
22 | 1.08 | 5.7 | Cc1cc(Cl)c2c(c1)C=C(C(=O)O)C(C(F)(F)F)O2 (stereo not given) | 
23 |  | 2.9 | COc1cc(C)cc2c1OC(C(F)(F)F)C(C(=O)O)=C2 (stereo not given) | 
24 | 4.39 |  | O=C(O)C1=Cc2cc(C(F)(F)F)ccc2OC1C(F)(F)F (stereo not given) | 
25 | 115 | 1040 | N#Cc1ccc2c(c1)C=C(C(=O)O)C(C(F)(F)F)O2 (stereo not given) | 
26 |  | 1 | COc1ccc2c(c1)C=C(C(=O)O)C(C(F)(F)F)O2 (stereo not given) | 
27 | 0.5 |  | CCc1cc(OC(F)(F)F)cc2c1OC(C(F)(F)F)C(C(=O)O)=C2 (stereo not given) | 
28 | 30.8 |  | Cc1cc2c(c(C)c1Cl)C=C(C(=O)O)[C@H](C(F)(F)F)O2 | 
29 | 29.8 | 229 | Cc1cc2c(c(C)c1Cl)C=C(C(=O)O)C(C(F)(F)F)O2 (stereo not given) | 
30 | 224 | 896 | Cc1ccc2c(c1)C=C(C(=O)O)C(C(F)(F)F)O2 (stereo not given) | inhibition (INH) [4]: 13%
